{"source": "patent US20250280826A1", "about": "“PLANT GROWTH PROMOTER” (KAO CORPORATION, priority 2022, published 2025)", "format": "physicochemical", "details": "in 100 μL of isobutyl alcohol", "description": "The amount of BHT dissolved in 100 μL of isobutyl alcohol was changed. […] For other solvents, solubility was similarly confirmed at a ratio of BHT:solvent=1:4. […] The reagents used were those manufactured by FUJIFILM Wako Pure Chemical Corporation."}
{"substance": "dibutylhydroxytoluene [BHT]", "values": [{"measurement": "amount of BHT uniformly dissolved", "value": "up to 25 mg"}]}
